Experimental data as given in patent US20090111818A1, “Combinations of Eszopiclone and O-Desmethylvenlafaxine, and Methods of Treatment of Menopause and Mood, Anxiety, and Cognitive Disorders” (SEPRACOR INC., priority 2005, published 2009).

Experiments:
[1] = test system: norepinephrine uptake; conditions: in vitro; cited from earlier work
[2] = in vivo; cited from earlier work
[3] = test system: dopamine uptake; conditions: in vitro; cited from earlier work
[4] = test system: norepinephrine synaptosomal uptake; conditions: cited from earlier work
[5] = test system: women with insomnia secondary to perimenopause or menopause; assay: Clinical study of eszopiclone 3 mg vs placebo: number of nocturnal awakenings due to hot flashes; format: in vivo, human; conditions: Week 1; 3 mg nightly; p<0.0001
Method: The study was aimed at observing efficacy of eszopiclone 3 mg compared to placebo in the treatment of insomnia secondary to perimenopause or menopause.
The study was a multicenter, randomized, double-blind, placebo-controlled, parallel-group study. […] The primary method of analysis compared the post-randomization results between the two treatment groups.
Subjects were women with insomnia secondary to perimenopause or menopause. Subjects were perimenopausal or menopausal and had insomnia symptoms including ≧45 minutes sleep latency (SL) and total sleep time (TST) ≦6 hours. Perimenopausal/menopausal symptoms predated the onset of sleep disturbance symptoms. The patient population was predominately Caucasian (77.2%). The mean age was 49, with a range of 40-60.
A total of 410 subjects were randomized. Among them, 201 received 3 mg of eszopiclone (ESZ) nightly (at bedtime) for four weeks and 209 received matching placebo (PBO).

**Q.** With `CN(C)CC(c1ccc(O)cc1)C1(O)CCCCC1` (racemic) [O-desmethylvenlafaxine, (±)-1-[2-(dimethylamino)-1-(4-hydroxyphenyl)ethyl]-cyclohexanol] as the compound, how does the “inhibition of norepinephrine uptake compared with the parent compound venlafaxine” value [1] read?
**A.** The value was “more potent inhibitor”.

**Q.** And the “half-life (t½)” value [2]?
**A.** Its value is “about 10 hours”.

**Q.** And the “half-life relative to that of venlafaxine” value [2]?
**A.** The value was “approximately 2.5 times”.

**Q.** What about the “inhibition of dopamine uptake compared with the parent compound venlafaxine” value [3] of the same compound?
**A.** The value was “more potent inhibitor”.

**Q.** For `COc1ccc(C(CN(C)C)C2(O)CCCCC2)cc1` (single isomer, unassigned) [venlafaxine (−) enantiomer], which “inhibition of norepinephrine synaptosomal uptake, comparison of enantiomers” value [4] is on record?
**A.** The value was “more potent inhibitor”.

**Q.** Which “change from baseline in number of nocturnal awakenings due to hot flashes compared with PBO” value [5] does the source give for `CN1CCN(C(=O)O[C@H]2c3nccnc3C(=O)N2c2ccc(Cl)cn2)CC1` [Eszopiclone, (+) 6-(5-chloropyrid-2-yl)-5-(4-methylpiperazin-1-yl)carbonyloxy-7-oxo-6,7-dihydro-5H-pyrrolo[3-4-b]pyrazine] here?
**A.** Its value is “significantly reduced”.
